Data as given in a melting point compilation (Tetko et al.; mined from patent text by program, amines drawn as free bases though some values may be those of a salt).

Structure (SMILES) | melting point [°C]
CC12C=CC(=O)C=C1CCC1C2C(O)CC2(C)C1CCC2(O)C(O)C(=O)O (stereo unspecified) | 213 to 214
COc1cc(C(=O)c2cnc3ccccc3c2)ccc1OCc1ccccc1 | 110 to 111
OCc1ccc(C23CNCC2C3)cc1 (stereo unspecified) | 80 to 82
Cc1c(CO)oc2ccc([N+](=O)[O-])cc12 | 149 to 150
COC(=O)Cc1cn(Cc2ccc(OCc3ccccc3)cc2)nc1-c1ccc(F)cc1 | 58 to 59
CCOC(=O)c1cc2c(cc1OCC)C(=O)C=CC2=O | 60 to 62
CCC(=O)N[C@@H](C)C(=O)N1CCC[C@H]1C(=O)NC | 163 to 165
CCCCNC(=O)[C@H](C)C[C@H](O)[C@H](CC1CCCCC1)NC(=O)[C@H](Cc1cscn1)NC(=O)[C@@H](CC(=O)N(C)Cc1ccccc1)Cc1ccc(OC)cc1 | 112 to 114
Cc1cccc(NC(=O)NC2C(=O)Nc3ccccc3NC2=O)c1 | > 300
Nc1cc(C=O)nc(Cc2ccc(F)cc2)c1F | 130 to 131
Cc1cc(C)cc(Oc2ccc(Oc3cc(C)cc(C)c3)cc2)c1 | 103
COc1cc(CC(=O)N[C@@H](COC(=O)C(C)(C)C)Cc2ccccc2)ccc1OCCN=[N+]=[N-] | 77 to 80
CC(O)CC1NC(=O)c2sccc2-n2cccc21 (stereo unspecified) | 170
COc1ccc2nc(Nc3ccc(F)cc3C)nc(N(C)c3ccccc3)c2c1 | 248 to 250
CCCc1nc2ccccc2n1Cc1ccc(-c2ccccc2-c2nnn[nH]2)nc1 | 240 to 241
COc1cc(/C=C/C=C/C(=O)NCCCC2CNCCC2c2c[nH]c3ccccc23)cc(OC)c1O (stereo unspecified) | 176 to 179
COc1ccc2[nH]cc(CCC(=O)Nc3ccccc3C(=O)O)c2c1 | 168 to 170
CC(C)c1ccc(N(Cc2ccc(N(C)C)cc2)C(=S)C2CCCc3ccccc32)cc1 (stereo unspecified) | 123 to 125
CCNC(=O)c1cc2c(Cl)ccc(-n3c(=O)cc(C(F)(F)F)n(C)c3=O)c2o1 | 225 to 226
CCOc1cc(F)cc2c1c(CCN(C)C)cn2CC | 77.1 to 78.2
CCOc1nn(-c2ccc(C(F)(F)F)cn2)cc1CCCOc1ccc(Cl)cc1CC(=O)O | 130 to 131

Structure (SMILES) | melting point [°C]
CNCC(O)c1ccc(F)cc1 (stereo unspecified) | 77 to 78.8
CON=C(c1cc(C)no1)c1ccccc1CON=C(C)c1ccc(Cl)c(Cl)c1 | 84 to 85
NC(=O)c1[nH]c2ccc(Cl)cc2c1S(=O)(=O)c1ccccc1 | 253 to 254
CC(=O)/C=C(\C)c1ccc(-c2ccccc2F)cc1 | 92
O=C(O)c1cccc(-c2ccc3c(c2)C(c2ccc(Cl)cc2Cl)CO3)c1 (stereo unspecified) | 192 to 193
Cc1nc2ccccc2c(=O)n1-c1ccccc1C#N | 165 to 166
Cc1ccccc1NC(=O)Nc1ccc(-c2c(CCO)sc3ncnc(N)c23)cc1 | 159 to 162
NC(=O)c1cc2cccc(NC(=O)c3cccs3)c2[nH]1 | 289 to 290
CCc1n[nH]c(CC)c1CCCCCCOc1cc(Cl)c(OC)cc1Cl | 148 to 150
O=c1c(Br)c(OCc2ccccc2)ccn1Cc1ccc(OCc2ccccc2)cc1 | 138 to 144
CCOC(=O)c1ccc(-c2csc(-c3ccccc3)n2)cc1 | 72 to 73
CC1(C)CC(=C[C@H]2[C@H](C(=O)O)C2(C)C)CC(C)(C)C1 (relative stereo) | 116
CCOC(=O)c1[nH]c2cc(Cl)cc(Cl)c2c1NCC(=O)c1ccccc1 | 143 to 144
O=S(=O)(c1ccccc1)c1ccc(-c2ccccc2)s1 | 115 to 116
CC(C)C1Sc2ccccc2N(CC(N)=O)C(=O)C1N (stereo unspecified) | 227 to 229
O=C(Nc1nc(C(F)(F)F)c(Cl)s1)c1ccc(Cl)c([N+](=O)[O-])c1 | 183 to 184
CC(=O)c1ccccc1NC(=O)Cc1ccccc1 | 78
COc1ccc(-c2[nH]nc3c2C(=O)c2c(NC(=O)Cc4ccc(N=[N+]=[N-])cc4)cccc2-3)cc1 | > 300
CC(C)(Oc1ccc(Cl)cc1)C(=O)NCCCn1ccnc1 | 83 to 84
COC(=O)c1cc(I)ccc1NS(C)(=O)=O | 119 to 120

Results, then the compound that gave them:

melting point [°C] | Structure (SMILES)
204 to 205 | N#CCn1nnc(NC(=O)C2c3ccccc3Oc3ccccc32)n1
101 to 102 | CCCNC(=O)c1cc(-c2ccc(OC)cc2)nn(CC2CC2)c1=O
253 | CC(=O)Nc1cc2c(c(C(=O)O)c1)NCCO2
83 to 85 | Cc1c(SCCCCl)ccnc1CSc1ncccn1
79 to 82 | N#CC1=C(Nc2ccc(F)cc2)CCCC1
292 | COc1cc(OC)c(S(C)(=O)=O)cc1C(=O)O
193 to 194 | Nc1ccc(CN2CCN(Cc3ccc(N)cc3)C(=O)C2=O)cc1
90 to 92 | COc1cccc2ccc(Cl)nc12
237 to 239 | COc1cc(C(=O)c2sc(NC(=O)c3ccncc3)nc2-c2ccco2)ccn1
248 to 250 | Cc1nc2c(c3c1[nH]c1cc(Cl)ccc13)C(=O)CC(C)(C)C2
125 to 126 | Clc1cccc(CSc2nnc(-c3ccc4occc4c3)o2)c1
138 to 139 | CCOc1cc(CCl)ccc1OCc1nc(-c2ccccc2)oc1C
105 | Cc1nn(C)c2nc3ccccc3c(NCc3ccccc3)c12
122 to 124 | CCn1c(CCO)nc(C2CC2)c1Sc1cc(C#N)cc(C#N)c1
105 to 110 | CN(CCCCNC(=NCCCOc1cccc(CN2CCCCC2)c1)NC#N)CCC(c1ccc(F)cc1)c1ccccn1 (stereo unspecified)
150 to 154 | CC(=O)Nc1ccc2c(c1)OCCN2C(C)=O
223 to 227 | COc1ccccc1N1CCN(CCn2c(=O)[nH]c3ccc(O)c(O)c3c2=O)CC1
48 to 50 | Cc1cn(Cc2ccccc2)c(=O)n(CCCCl)c1=O
163 to 165 | CC(=O)n1c2ccccc2c2nc3ccccc3cc21
246 to 248 | Nc1n[nH]c2cc(CN3CCN(Cc4cc5ccc(Cl)cc5s4)CC3=O)ccc12

melting point [°C] | Structure (SMILES)
140 | CC1(C)COC(c2ccccc2)(c2ccc(N)c([N+](=O)[O-])c2)OC1
86 to 88 | CCOC(=O)N1CCC(c2ccc(N3CC(COC)OC3=O)cc2)CC1 (racemic)
108 to 118 | CN(C)CCOc1cccc2cc(C(=O)Nc3ccccc3N)oc12
205 to 207 | O=C(O)c1cn(-c2cnsn2)c2c(F)c(F)c(F)cc2c1=O
233 | Cc1cc(Cl)c2cc(O)ccc2n1
181 to 182 | CCSc1nc2c(C)sc(C(=O)O)c2n1Cc1ccc(-c2ccccc2-c2n[nH]c(=O)n2C)cc1
136 to 137 | CCc1[nH]n(C2CCCC2)c2nc(Cc3ccc(OCCN4CCOCC4)cc3)nc(=O)c1-2
107 | COCc1cnc2c(N)cccc2c1Cl
205 to 208 | Oc1cccc(CN2CCCCC2c2nc(-c3ccccc3)c(-c3ccccc3)o2)c1 (stereo unspecified)
230 to 232 | c1ccn(Nc2ncnc3c2ncn3-n2cccc2)c1
64 to 66 | O=C(Nc1ccc(OC(F)(F)F)c(Br)c1)C(F)(F)F
235 to 238 | COc1ccc(-c2cnn3c(N)c(-c4ccc(F)c(Cl)c4)c(C)nc23)cc1OC
130 to 134 | O=C(NS(=O)(=O)c1ncccc1C(F)(F)F)Oc1ccccc1
305 to 307 | CCn1c(=O)c2[nH]c(-c3ccc(S(=O)(=O)N4CCN(C)CC4)cc3)nc2n(CC)c1=O
190 to 194 | Cn1nc(C(F)(F)F)c(C(=O)O)c1Sc1ccc(F)cc1
140 | Cc1ccnc(N2CCN(CCc3c(C)n4c5c(cc(C(O)C(C)C)cc35)CCC4)CC2)c1 (stereo unspecified)
154 to 156 | CC1CCN(CCNc2ccnc3cc(Cl)ccc23)CC1
113 to 115 | OCc1cc2c3n(ccc-2n1)CC(Br)=N3
154 to 158 | Cc1c(OCCCCSCCn2c([N+](=O)[O-])cnc2C)ccnc1CNc1cnc2ccccc2c1
108 to 110 | COc1ccc(S(=O)(=O)N(Cc2ccccc2)c2c(C(=O)O)cnc3c2cnn3-c2ccccc2)cc1

melting point [°C] | Structure (SMILES)
102 to 103 | CCCc1nn(-c2ccc(C(F)(F)F)cn2)cc1CCCOc1c(CC(=O)O)cccc1C(C)C
177 to 181 | CC(=O)N1CCc2ccc(C(=O)NO)cc2C1
157 to 160 | CCN1CCN(Cc2ccc(-c3ccc4c(Nc5cc(OC)c(Cl)cc5Cl)c(C#N)cnc4c3)o2)CC1
227 to 229 | CC(C)(C)c1cc(-c2nc3n(c2CO)CCS3)cc(C(C)(C)C)c1O
141 to 142 | CN(C)C(=O)COc1cc(Cl)ccc1C(=O)O
147 to 148 | CCOC(=O)C1(Cl)C(=O)N2CCOc3cc(Cl)cc1c32 (stereo unspecified)
159 to 162 | O=c1oc(-c2ccc(F)cc2)nc2cccc(Cl)c12
151 to 152 | CN1C(C(=O)Nc2ccccn2)=C(OC2OC(=O)c3ccccc32)c2ccccc2S1(=O)=O (stereo unspecified)
135 to 145 | COc1cccc2c(CCN(C3CCC3)C3COc4c(F)ccc(C(N)=O)c4C3)coc12 (stereo unspecified)
152 to 154 | C#CCn1c(-c2ccccc2)nc(CC)c(O)c1=O
279 to 282 | O=c1[nH]c2ccc(I)cc2cc1[N+](=O)[O-]
215 to 217 | CN(C)CC=CC(=O)Nc1ccc2ncnc(Nc3cccc(Br)c3)c2c1
169 to 170 | Cc1cc(NC(=O)C(=O)N2CCCCC2)cc(C)c1S(=O)(=O)C[N+](=O)[O-]
221 to 226 | CCNCC1(C)CN(c2cc3c(cc2F)c(=O)c(C(=O)O)cn3C2CC2)C1
218 to 219 | Nc1ccc(S(=O)(=O)c2cnc(N)s2)cc1
88 to 89 | COc1ccc(-n2nc(CO)c3c2CCC3)cc1
241 to 243 | CC(C)(C)c1ccc(NS(=O)(=O)c2ccc(N3CCNC3=O)cc2)cc1
191 | Brc1cn2ccnc2c(N2CCOCC2)n1
214 to 216 | CC(C)C1(C)N=C2c3nc4sccc4cc3C(=O)N2C1=O (stereo unspecified)
97 to 102 | CCOC(=O)CSc1nc(Cl)cc(Nc2ccc(F)cc2)n1
